From PMC3380929 (PLoS Pathogens, 2012)
“Also recorded” adds a separate entry of the source. Positions of bridges follow the written chain, without caps; N, C: chain ends. Residues, ends and D or L forms follow the SMILES beside them.

Tests used:
P. falciparum 3D7 or HB3 = assay: Red blood cell invasion assay, cross-strain (3D7 and HB3); format: cell-based, P. falciparum (strains 3D7 and HB3); details: for Cross-strain reactivity of invasion inhibition: 3D7 or HB3, peptides 0.2 to 20 µM, 16 hours post-invasion, N = 3; for Inhibition of erythrocyte invasion: P. falciparum merozoites, in words
Protocol: (§1) The P. falciparum cell cultures and the invasion assays were performed as described previously. Briefly, highly synchronized P. falciparum 3D7 and HB3 schizonts (1.5% hematocrit, 1.5% parasitemia) were incubated with R1 or PfRON2sp1 peptides. Blood smears were collected 16 hours post-invasion and used for ring-stage parasites counting. The results presented are representative of three independent experiments, each performed in triplicate.

[1] = test system: PfAMA1 from 3D7, CAMP, FVO and HB3; assay: SPR binding compared across PfAMA1 strains; design: species or system P. falciparum
Excerpt: (§2) (ii) P. pastoris expression: Synthetic genes were optimized for PfAMA1 coding of residues 97–442, from strains 3D7 (Genbank accession number U33274), CAMP (accession number M34552) and HB3 (accession number U33277). Potential N-glycosylation sites were mutated and genes were cloned EcoRI-KpnI in the pPicZalpha A vector (Invitrogen), resulting in an 11-residues sequence extension followed by myc-epitope and hexa-His tags at the C-terminus), expressed in P. pastoris, and purified as described. Yield after purification was approximately 20 mg per L of culture. PfAMA1 FVO (residues 25–545, no tags, accession number AJ277646) was produced as described before. The DiCo3 protein was modified compared to the published protein [23]; it includes the PfAMA1 FVO prodomain (amino acids 25–96) and one additional mutation to minimize proteolytic cleavage Lys376–>Arg (B. Faber, unpublished results). The PfAMA1 3D7mut (Ile225–>Asn, residues 25–545, no tags) mutant was generated by site-directed mutagenesis (Genscript) and produced in P. pastoris in a similar fashion to the native protein [29].
A 39-residue peptide corresponding to residues 2021 to 2059 of PfRON2 (PfRON2sp1) was synthesized by Kinexus (Vancouver, Canada) and disulfide cyclized. Lyophilized PfRON2sp1 was solubilized in 100% DMSO and subsequently diluted in HBS (20 mM HEPES pH 7.5, 150 mM NaCl) for use in co-crystallization and functional studies. Peptides PfRON2sp2 (residues 2027 to 2054) and R1 were synthesized by PolyPeptide (Strasbourg, France) and solubilized in 3.5% DMSO for subsequent use.
SPR measurements were made with a Biacore 2000 instrument (Biacore AB). AMA1 proteins diluted in 10 mM sodium acetate pH 4.5 for 3D7, CAMP, HB3 and FVO strains, or pH 4.0 for 3D7mut and Dico3, were covalently immobilized by an amine-coupling procedure on CM5 sensor chips (GE Healthcare). The reference flow cell was prepared by the same procedure in absence of protein. […]

P. falciparum 3D7 = assay: Red blood cell invasion assay, P. falciparum 3D7; format: cell-based, P. falciparum (strain 3D7); details: peptides 0.2 to 20 µM, parasitemia of IRBC 16 hours post-invasion, N = 3
Protocol: as §1

PfAMA1 from strain CAMP = assay: SPR binding to immobilized recombinant PfAMA1 CAMP; design: species or system P. falciparum (strain CAMP); details: SPR Biacore 2000, AMA1 immobilized on CM5, 25°C, PBS and 0.005% Tween 20, steady-state model (Req extrapolated), mean ± SD, at least three independent experiments, read-out: Apparent equilibrium dissociation constant KD
Excerpt: as §2
(§3) A 39-residue peptide corresponding to residues 2021 to 2059 of PfRON2 (PfRON2sp1) was synthesized by Kinexus (Vancouver, Canada) and disulfide cyclized. […]

PfAMA1 from strain 3D7 = PfAMA1 from strain 3D7 (Plasmodium falciparum, UniProt Q7KQK5); assay: SPR binding to immobilized recombinant PfAMA1 3D7; design: species or system P. falciparum (strain 3D7); details: ratio PfRON2sp1 vs PfRON2sp2, SPR
Excerpt: as §2, §3

PfAMA1 3D7 = PfAMA1 3D7 (Plasmodium falciparum, UniProt Q7KQK5); assay: Isothermal titration calorimetry of R1 with PfAMA1 3D7; format: binding, P. falciparum (strain 3D7); details: ITC200, PfAMA1 3D7 (P. pastoris) 0.6 µM, R1 55 µM, PBS, 25°C, 1∶1 interaction model
Protocol: ITC measurements were made using a ITC200 calorimeter (MicroCal). PfAMA1 3D7 (P. pastoris) and peptide R1 were diluted in PBS to final concentrations of 0.6 µM and 55 µM, respectively. PfAMA1 3D7 (initial volume 200 µL) was titrated at 25°C by consecutive injections of the peptide R1 (2 µL aliquots at 3 min intervals). Raw data were normalized and corrected for the heat of dilution of R1 in PBS. Binding stoichiometry was determined by fitting the final data to a 1∶1 interaction model using the Origin7 software (OriginLab).

[2] = target: PfAMA1 3D7 (residues 97-442), P. pastoris expression (Plasmodium falciparum (strain 3D7)) (UniProt Q7KQK5); assay: SPR; Biacore 2000; PfAMA1 (3D7, CAMP, HB3, FVO) amine-coupled on CM5 at pH 4.5; PfRON2sp peptides injected; 25°C, PBS with 0.005% Tween 20, 5 µL/min; apparent KD from a steady-state model, Req extrapolated
[3] = target: PfAMA1 FVO (residues 25-545, no tags) (Plasmodium falciparum (strain FVO)); assay: as above
[4] = target: PfAMA1 HB3 (residues 97-442), P. pastoris expression (Plasmodium falciparum (strain HB3)); assay: as above
[5] = target: PfAMA1 CAMP (residues 97-442), P. pastoris expression (Plasmodium falciparum (strain CAMP)) (UniProt P50489); assay: as above
crystal structure = target: the molecule itself; assay: crystal structure

Q: With CC[C@H](C)[C@H](NC(=O)[C@H](CC(=O)O)NC(=O)[C@H](CCCCN)NC(=O)[C@H](C)NC(=O)[C@H](CCC(N)=O)NC(=O)[C@H](CCC(N)=O)NC(=O)[C@@H](NC(=O)[C@@H](NC(=O)[C@@H](N)CC(=O)O)[C@@H](C)CC)[C@@H](C)O)C(=O)NCC(=O)N[C@@H](C)C(=O)NCC(=O)N1CCC[C@H]1C(=O)N[C@H](C(=O)N[C@@H](C)C(=O)N[C@@H](CO)C(=O)N[C@H]1CSSC[C@@H](C(=O)N[C@@H](CC(C)C)C(=O)N[C@@H](CC(N)=O)C(=O)N[C@@H](CO)C(=O)N[C@H](C(=O)N[C@H](C(=O)N[C@@H](CC(N)=O)C(=O)N[C@H](C(=O)N[C@@H](C)C(=O)N[C@@H](CC(C)C)C(=O)N[C@@H](CO)C(=O)O)[C@@H](C)O)C(C)C)C(C)C)NC(=O)[C@H]([C@@H](C)CC)NC(=O)[C@H](CCC(N)=O)NC(=O)[C@H](CCC(N)=O)NC(=O)[C@@H]2CCCN2C(=O)[C@@H]2CCCN2C(=O)[C@H](CO)NC(=O)[C@H](CCSC)NC(=O)[C@H](CCCNC(=N)N)NC(=O)[C@H]([C@@H](C)O)NC(=O)[C@H]([C@@H](C)O)NC(=O)[C@H](Cc2ccccc2)NC1=O)C(C)C [PfRON2sp1] as the molecule, how does the “Cross-strain reactivity of invasion inhibition” value (P. falciparum 3D7 or HB3) read?
A: cross-strain inhibition of invasion; also recorded: cross-strain reactivity; also recorded: not strain specific

Q: And the “Cross-strain reactivity of invasion inhibition” value (P. falciparum 3D7 or HB3; listed as PfRON2 peptide)?
A: strong inhibitory potency is not affected by AMA1 polymorphisms

Q: And the “Inhibition of erythrocyte invasion” value (P. falciparum 3D7 or HB3)?
A: very efficient at inhibiting invasion

Q: And the “Inhibition of erythrocyte invasion” value (P. falciparum 3D7 or HB3; listed as PfRON2 peptide)?
A: inhibits erythrocyte invasion

Q: And the “Affinity for PfAMA1 relative to R1 peptide” value ([1]; all the PfAMA1 proteins tested, SPR, compared with R1)?
A: higher affinity than for R1 peptide

Q: What about the “Affinity to PfAMA1” value ([1]; in words) of the same molecule?
A: very high affinity to PfAMA1

Q: What about the “Inhibition of red blood cell invasion relative to R1 peptide” value (P. falciparum 3D7) of the same molecule?
A: higher capacity to inhibit red cell invasion; also recorded: higher inhibitory efficiency

Q: What about the Kd (PfAMA1 from strain CAMP) of the same molecule?
A: 14.6 ± 3.8 nM

Q: And the “Affinity of PfAMA1 from 3D7 for PfRON2sp1 higher than for PfRON2sp2” value (PfAMA1 from strain 3D7)?
A: 25 fold

Q: Which results are given for CC[C@H](C)[C@H](NC(=O)[C@H](CC(=O)O)NC(=O)[C@@H](N)CCCCN)C(=O)NCC(=O)N[C@@H](C)C(=O)NCC(=O)N1CCC[C@H]1C(=O)N[C@H](C(=O)N[C@@H](C)C(=O)N[C@@H](CO)C(=O)N[C@H]1CSSC[C@@H](C(=O)N[C@@H](CC(C)C)C(=O)N[C@@H](CC(N)=O)C(=O)N[C@@H](CO)C(=O)N[C@H](C(=O)N[C@H](C(=O)N[C@@H](CC(N)=O)C(=O)O)C(C)C)C(C)C)NC(=O)[C@H]([C@@H](C)CC)NC(=O)[C@H](CCC(N)=O)NC(=O)[C@H](CCC(N)=O)NC(=O)[C@@H]2CCCN2C(=O)[C@@H]2CCCN2C(=O)[C@H](CO)NC(=O)[C@H](CCSC)NC(=O)[C@H](CCCNC(=N)N)NC(=O)[C@H]([C@@H](C)O)NC(=O)[C@H]([C@@H](C)O)NC(=O)[C@H](Cc2ccccc2)NC1=O)C(C)C [PfRON2sp2] (H-KDIGAGPVASCFTTRMSPPQQICLNSVVN-OH; disulfide 11-23; N-terminus and C-terminus assumed)?
A: Difference in affinity of PfAMA1 3D7 and CAMP homologs ([1]; 3D7 vs CAMP, SPR): no significant difference in the affinity; Kd (PfAMA1 from strain CAMP): 165 ± 42 nM

Q: Which Kd (PfAMA1 3D7) does the source give for CC[C@H](C)[C@H](NC(=O)[C@H](Cc1cnc[nH]1)NC(=O)[C@H](CCSC)NC(=O)[C@H](CCCNC(=N)N)NC(=O)[C@H](CO)NC(=O)CNC(=O)[C@H](Cc1ccccc1)NC(=O)[C@H](CCCCN)NC(=O)[C@H](CO)NC(=O)[C@H](Cc1ccccc1)NC(=O)[C@H](CC(C)C)NC(=O)[C@@H]1CCCN1C(=O)[C@H](CC(C)C)NC(=O)[C@H](Cc1ccccc1)NC(=O)[C@H](CCC(=O)O)NC(=O)[C@H](C)NC(=O)[C@H](Cc1ccccc1)NC(=O)[C@@H](N)C(C)C)C(=O)N[C@@H](CC(C)C)C(=O)N[C@@H](CCCCN)C(=O)O [R1] (H-VFAEFLPLFSKFGSRMHILK-OH) here?
A: 145 nM

Q: What does the source list for “PfRON2sp1 (PfRON2 residues 2021-2059) (peptide)”?
A: Kd [2]: 20.3 nM; Kd [3]: 9.2 nM; Kd [4]: 18.3 nM; Kd [5]: 14.6 nM

Q: For “PfRON2sp2 (PfRON2 residues 2027-2055) (peptide)”, which Kd [2] is on record?
A: 520 nM

Q: And the Kd [3]?
A: 80 nM

Q: What about the Kd [4] of the same molecule?
A: 680 nM

Q: And the Kd [5]?
A: 165 nM

Q: Does VFAEFLPLFSKFGSRMHILK (source: synthetic peptide (PolyPeptide)) [invasion-inhibitory peptide R1] bind (crystal structure)?
A: binds
